Like-named read-outs stand apart in the source and are kept apart here.
Key:
[1] = target: T1, N-terminally FLAG-tagged PARP2 (amino acids 1-583) (Homo sapiens, UniProt Q9UGN5); assay: PARP2 probe displacement HTRF assay; assay type: binding; conditions: binned Kd
T1 construct: N-terminally FLAG-tagged PARP2 (amino acids 1-583)
Method: Data analysis was performed identical as for PARP1.

[2] = target: T2, full length N-terminally FLAG-tagged PARP1 (Homo sapiens, UniProt P09874); assay: PARP1 probe displacement HTRF assay; conditions: for Kd: binned Kd; for Selectivity: PARP1 over PARP2, ratio Kd (PARP2)/Kd (PARP1)
T2 sequence (P09874 whole entry): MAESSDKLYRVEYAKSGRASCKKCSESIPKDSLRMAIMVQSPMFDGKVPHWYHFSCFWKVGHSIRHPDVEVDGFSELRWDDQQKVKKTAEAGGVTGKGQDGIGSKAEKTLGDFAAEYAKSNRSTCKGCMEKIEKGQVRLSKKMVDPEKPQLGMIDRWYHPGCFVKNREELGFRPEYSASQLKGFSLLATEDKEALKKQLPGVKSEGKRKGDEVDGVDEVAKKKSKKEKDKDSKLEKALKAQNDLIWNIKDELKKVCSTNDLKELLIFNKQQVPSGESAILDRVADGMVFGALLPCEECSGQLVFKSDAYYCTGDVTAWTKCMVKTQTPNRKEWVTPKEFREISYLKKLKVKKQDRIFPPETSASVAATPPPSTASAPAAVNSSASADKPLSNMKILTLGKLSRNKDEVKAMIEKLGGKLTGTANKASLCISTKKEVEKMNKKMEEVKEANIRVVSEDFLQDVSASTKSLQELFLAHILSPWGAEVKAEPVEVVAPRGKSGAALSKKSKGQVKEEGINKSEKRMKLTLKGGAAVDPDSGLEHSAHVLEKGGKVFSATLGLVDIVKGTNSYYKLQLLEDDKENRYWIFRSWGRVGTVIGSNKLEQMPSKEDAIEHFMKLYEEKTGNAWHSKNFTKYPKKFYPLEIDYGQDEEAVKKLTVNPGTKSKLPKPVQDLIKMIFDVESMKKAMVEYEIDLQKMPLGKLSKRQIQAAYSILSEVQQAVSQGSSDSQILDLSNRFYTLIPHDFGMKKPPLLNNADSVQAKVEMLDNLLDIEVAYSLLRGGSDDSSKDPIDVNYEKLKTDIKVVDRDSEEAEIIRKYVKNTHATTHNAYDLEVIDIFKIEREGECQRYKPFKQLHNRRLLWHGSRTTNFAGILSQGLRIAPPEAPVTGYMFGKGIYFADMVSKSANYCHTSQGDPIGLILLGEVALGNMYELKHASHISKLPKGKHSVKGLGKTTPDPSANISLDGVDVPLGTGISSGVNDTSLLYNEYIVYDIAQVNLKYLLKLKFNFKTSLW

[3] = target: T2, full length N-terminally FLAG-tagged PARP1; assay: PARP1 biochemical DELFIA assay (auto-PARylation); set-up: recombinant full length human N-terminally FLAG-tagged PARP1
[4] = PARP1 HTRF, probe displacement HTRF
[5] = binned IC50, biochemical auto-PARylation assay
[6] = read-out: PARP1 HTRF, PARP1 probe displacement HTRF
[7] = binned IC50, PARP1 biochemical DELFIA assay
[8] = PARP1 HTRF, PARP1 probe displacement HTRF
[9] = read-out: PARP1 HTRF, probe displacement HTRF

T1 sequence (Q9UGN5 whole entry, the tested form may be a part): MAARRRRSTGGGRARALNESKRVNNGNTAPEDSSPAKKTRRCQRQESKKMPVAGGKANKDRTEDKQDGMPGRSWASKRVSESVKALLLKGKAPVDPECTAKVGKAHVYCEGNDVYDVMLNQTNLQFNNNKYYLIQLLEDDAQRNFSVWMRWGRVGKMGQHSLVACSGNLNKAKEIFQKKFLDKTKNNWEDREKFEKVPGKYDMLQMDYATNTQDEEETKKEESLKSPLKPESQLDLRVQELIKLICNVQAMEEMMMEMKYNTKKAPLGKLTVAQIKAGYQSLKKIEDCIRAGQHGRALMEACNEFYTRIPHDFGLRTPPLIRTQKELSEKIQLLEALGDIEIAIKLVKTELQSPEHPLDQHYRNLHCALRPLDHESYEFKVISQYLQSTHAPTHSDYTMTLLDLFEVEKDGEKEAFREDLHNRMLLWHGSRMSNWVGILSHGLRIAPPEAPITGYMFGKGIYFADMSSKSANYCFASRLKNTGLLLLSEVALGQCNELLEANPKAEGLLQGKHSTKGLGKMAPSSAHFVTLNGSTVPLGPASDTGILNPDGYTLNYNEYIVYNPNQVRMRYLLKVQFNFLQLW

Kd ([1]; probe displacement HTRF) [µM] | Kd [2, 4] [µM] | IC50 [3, 5] [µM] | Kd ([1]; PARP2 probe displacement HTRF) [µM] | Kd [2, 6] [µM] | IC50 [3, 7] [µM] | Kd [2, 8] [µM] | Kd [2, 9] [µM] | Structure (SMILES) | Selectivity ([2]; probe displacement HTRF)
 |  |  | > 10 | 0.01 to 0.1 | 0.1 to 1 |  |  | CNC(=O)c1ccc(N2CCC(N3CCC(c4nc5ncccc5c(=O)[nH]4)C3)CC2)cn1 (single isomer, unassigned) [Compound 60b] | ++ (++ indicates a value of 50 to less than 100)
 |  |  | 0.1 to 1 |  | 0.01 to 0.1 | < 0.01 |  | CNC(=O)c1ccc(N2CCC(N3CCC(c4nc5ccccc5c(=O)[nH]4)C3)CC2)cn1 (single isomer, unassigned) [Compound 10a, N-methyl-5-(4-(3-(4-oxo-3,4-dihydroquinazolin-2-yl)pyrrolidin-1-yl)piperidin-1-yl)picolinamide] | +++ (+++ indicate a value of at least 100)
1 to 10 | < 0.01 | < 0.01 |  |  |  |  |  | CNC(=O)c1ccc(N2CCC(N3CC4(c5nc6c(c(=O)[nH]5)COCC6)CC3C4)CC2)cn1 [Compound 373] | +++ (+++ indicate a value of at least 100)
 |  |  | 1 to 10 |  | < 0.01 | < 0.01 |  | CCc1cnc(C2CCN(C3CCN(c4ccc(C(=O)NC)nc4)CC3)C2)[nH]c1=O (racemic) [Compound 42rac] | +++ (+++ indicate a value of at least 100)
 |  |  | > 10 | 0.01 to 0.1 | 0.01 to 0.1 |  |  | CNC(=O)c1ccc(N2CCC(N3CCC(c4ncc(C)c(=O)[nH]4)C3)CC2)cn1 (single isomer, unassigned) [Compound 35b] | +++ (+++ indicate a value of at least 100)
> 10 |  | 0.1 to 1 |  |  |  |  | 0.1 to 1 | CNC(=O)c1ccc(N2CCC(N3CCC(c4cnc(C(F)(F)F)c(=O)[nH]4)C3)CC2)cn1 (single isomer, unassigned) [Compound 279a] | + (+ indicates a value of 10 to less than 50)
 |  |  | 1 to 10 | 0.01 to 0.1 | 0.01 to 0.1 |  |  | CNC(=O)c1ccc(N2CCC(N3CCCC(c4nc5c(Cl)cccc5c(=O)[nH]4)C3)CC2)cn1 (single isomer, unassigned) [Compound 44b] | + (+ indicates a value of 10 to less than 50)
1 to 10 |  | 0.01 to 0.1 |  |  |  |  | 0.01 to 0.1 | CNC(=O)c1ccc(N2CCC(N3CCC(c4cc5c(F)cncc5c(=O)[nH]4)C3)CC2)cn1 (single isomer, unassigned) [Compound 331b] | +++ (+++ indicate a value of at least 100)
 |  |  | 0.1 to 1 | < 0.01 | < 0.01 |  |  | CNC(=O)c1ccc(N2CCC(N3CCC(c4cc5ncccc5c(=O)[nH]4)C3)CC2)cn1 (single isomer, unassigned) [Compound 218b] | +++ (+++ indicate a value of at least 100)
> 10 |  | 0.01 to 0.1 |  |  |  |  | 0.01 to 0.1 | CNC(=O)c1ccc(N2CCC(N3CCC(c4ccc(CCO)c(=O)[nH]4)C3)CC2)cn1 (racemic) [Compound 286rac] | +++ (+++ indicate a value of at least 100)
 |  |  | 1 to 10 | 0.1 to 1 | 0.01 to 0.1 |  |  | CNC(=O)c1ccc(N2CCC(N3CCCC(c4nc5sc6c(c5c(=O)[nH]4)CCC6)C3)CC2)cn1 (single isomer, unassigned) [Compound 185b] | + (+ indicates a value of 10 to less than 50)
 |  |  | > 10 | > 10 | 1 to 10 |  |  | CNC(=O)c1ccc(N2CCC(N3CCC(c4ccc(OC)c(=O)[nH]4)C3)CC2)cn1 (single isomer, unassigned) [Compound 148a] | − (− indicates a value of less than 10)
 |  |  | > 10 |  | 1 to 10 | 0.1 to 1 |  | CNC(=O)c1ccc(N2CCC(C(=O)N3CCC(c4ncc(C(F)(F)F)c(=O)[nH]4)CC3)CC2)cn1 [Compound 59] | − (− indicates a value of less than 10)
 |  |  | > 10 | 0.01 to 0.1 | 0.01 to 0.1 |  |  | CNC(=O)c1ccc(N2CCC(N3CCC(c4cc5c(C(F)(F)F)cccc5c(=O)[nH]4)C3)CC2)cn1 (single isomer, unassigned) [Compound 167a] | ++ (++ indicates a value of 50 to less than 100)
 |  |  | 1 to 10 | 0.01 to 0.1 | 0.01 to 0.1 |  |  | CNC(=O)c1ccc(N2CCC(CN3CCC(c4nc5ccccc5c(=O)[nH]4)CC3)C2)cn1 (single isomer, unassigned) [Compound 50a] | + (+ indicates a value of 10 to less than 50)
 |  |  | > 10 | 0.1 to 1 | 0.1 to 1 |  |  | CNC(=O)c1ccc(N2CCC(N3CCCC(c4ncc(C(F)(F)F)c(=O)[nH]4)C3)CC2)cn1 (single isomer, unassigned) [Compound 73a] | − (− indicates a value of less than 10)
 |  |  | > 10 | 0.1 to 1 | 0.1 to 1 |  |  | CNC(=O)c1ccc(N2CCC(N3CCC(c4ccc(Cl)c(=O)[nH]4)C3)CC2)cn1 (single isomer, unassigned) [Compound 201a] | + (+ indicates a value of 10 to less than 50)

More lines, now with the values behind:

Structure (SMILES) | Kd ([1]; probe displacement HTRF) [µM] | Kd [2, 4] [µM] | IC50 [3, 5] [µM] | Kd ([1]; PARP2 probe displacement HTRF) [µM] | Kd [2, 6] [µM] | IC50 [3, 7] [µM] | Kd [2, 8] [µM] | Kd [2, 9] [µM] | Selectivity ([2]; probe displacement HTRF)
N#Cc1nc(C(=O)NC2CC2)ccc1N1CCC(N2CC3(c4nc5ccc(F)cc5c(=O)[nH]4)CC2C3)CC1 [Compound 388] | 0.1 to 1 | < 0.01 | < 0.01 |  |  |  |  |  | +++ (+++ indicate a value of at least 100)
N#Cc1ccc(N2CCC(N3CC4(c5nc6ccc(F)cc6c(=O)[nH]5)CC3C4)CC2)c(Cl)c1 [Compound 381] | 1 to 10 | < 0.01 | < 0.01 |  |  |  |  |  | +++ (+++ indicate a value of at least 100)
CNC(=O)c1ncc(N2CCC(N3CCC(c4cc5ccc(F)cc5c(=O)[nH]4)C3)CC2)c(C(F)(F)F)n1 (single isomer, unassigned) [Compound 266b] | > 10 |  | 0.01 to 0.1 |  |  |  |  | 0.01 to 0.1 | +++ (+++ indicate a value of at least 100)
CNC(=O)c1ccc(OCCCN2CCC(c3nc4ccccc4c(=O)[nH]3)CC2)cn1 [Compound 2, N-methyl-5-(3-(4-(4-oxo-3,4-dihydroquinazolin-2-yl)piperidin-1-yl)propoxy)picolinamide] |  |  |  | 1 to 10 |  | < 0.01 | < 0.01 |  | +++ (+++ indicate a value of at least 100)
CNC(=O)c1cnc(N2CCC(N3CCC(c4cc5ccccc5c(=O)[nH]4)C3)CC2)s1 (racemic) [Compound 253rac] | > 10 |  | 0.01 to 0.1 |  |  |  |  | 0.01 to 0.1 | + (+ indicates a value of 10 to less than 50)
Cc1cnc(-c2ccc(N3CCC(N4CCC(c5nc6ccccc6c(=O)[nH]5)C4)CC3)cn2)n1C (racemic) [Compound 321rac] | 0.1 to 1 |  | 0.1 to 1 |  |  |  |  | 0.1 to 1 | − (− indicates a value of less than 10)
COCCNC(=O)c1ccc(N2CCC(N3CCCC(c4nc5ccccc5c(=O)[nH]4)C3)CC2)cn1 (single isomer, unassigned) [Compound 116a] |  |  |  | > 10 | 0.01 to 0.1 | 0.01 to 0.1 |  |  | +++ (+++ indicate a value of at least 100)
CNC(=O)c1cc(C)c(N2CCC(N3CCC(c4cc5ccncc5c(=O)[nH]4)C3)CC2)c(C)n1 (racemic) [Compound 211rac] |  |  |  | 0.1 to 1 | < 0.01 | < 0.01 |  |  | +++ (+++ indicate a value of at least 100)
O=c1[nH]c(C2CCN(C3CCN(c4ccc(OC(F)F)nc4)CC3)C2)cc2ccc(F)cc12 (single isomer, unassigned) [Compound 374a] | 0.1 to 1 |  | 0.01 to 0.1 |  |  |  |  | 0.01 to 0.1 | + (+ indicates a value of 10 to less than 50)
CNC(=O)c1ccc(N2CCC(N3CC4(c5nc6ncc(F)cc6c(=O)[nH]5)CC3C4)CC2)c(F)n1 [Compound 369] | 1 to 10 | < 0.01 | < 0.01 |  |  |  |  |  | +++ (+++ indicate a value of at least 100)
N#Cc1ccc(N2CCC(N3CCC(c4nc5ccccc5c(=O)[nH]4)C3)CC2)cn1 (single isomer, unassigned) [Compound 69a] |  |  |  | 0.1 to 1 | 0.01 to 0.1 | < 0.01 |  |  | ++ (++ indicates a value of 50 to less than 100)
N#Cc1ccc(N2CCC(N3CCC(c4cc5ccc(F)cc5c(=O)[nH]4)C3)CC2)c(Cl)c1 (single isomer, unassigned) [Compound 386b] | 1 to 10 |  | < 0.01 |  |  |  |  | < 0.01 | +++ (+++ indicate a value of at least 100)
CS(=O)(=O)Nc1ccc(N2CCC(N3CCC(c4nc5ccccc5c(=O)[nH]4)C3)CC2)cc1 (single isomer, unassigned) [Compound 250b] | 0.1 to 1 |  | 0.01 to 0.1 |  |  |  |  | 0.01 to 0.1 | + (+ indicates a value of 10 to less than 50)
N#Cc1ccc(N2CCC(N3CCC(c4nc5ccccc5c(=O)[nH]4)C3)CC2)nc1 (single isomer, unassigned) [Compound 55a] |  |  |  | 1 to 10 | < 0.01 | < 0.01 |  |  | +++ (+++ indicate a value of at least 100)
CNC(=O)c1ccc(N2CCC(N3CC4(c5nc6ccc(F)cc6c(=O)[nH]5)CC3C4)CC2)cn1 [Compound 238] | 0.1 to 1 | < 0.01 | < 0.01 |  |  |  |  |  | +++ (+++ indicate a value of at least 100)
CNC(=O)c1ccc(N2CCC(N3CCC(c4cc5ccc(F)cc5c(=O)[nH]4)C3)CC2)cc1F (single isomer, unassigned) [Compound 270a] | 0.01 to 0.1 |  | 0.01 to 0.1 |  |  |  |  | 0.01 to 0.1 | − (− indicates a value of less than 10)

From patent US20250152585A1, “PHARMACEUTICAL COMPOUND” (Duke Street Bio Limited, priority 2022, published 2025)
